# Laboratory results published in PubChem BioAssay (NCI).
#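 Five compound concentrations were applied to cells in 96-well plates for 48 hours; endpoints were derived by simple linear interpolation of the resulting dose-response curve. GI50 marks 50% less growth. TGI: concentration producing complete growth inhibition.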
# Tests used:
# Test in all cases: inhibition of tumour cell growth, NCI panel, 48 h
# SF-295 CNS = test system: SF-295 CNS
# SK-MEL-2 melanoma = test system: SK-MEL-2 melanoma
# HOP-62 NSCLC = test system: HOP-62 NSCLC
# MALME-3M melanoma = test system: MALME-3M melanoma
# HOP-18 NSCLC = test system: HOP-18 NSCLC
# KM20L2 colon = test system: KM20L2 colon
# UACC-62 melanoma = test system: UACC-62 melanoma
# HT29 colon = test system: HT29 colon
# EKVX NSCLC = test system: EKVX NSCLC
# HL-60(TB) leukemia = test system: HL-60(TB) leukemia
# NCI-H522 lung = test system: NCI-H522 lung
# XF 498 CNS = test system: XF 498 CNS
SMILES,TGI (SF-295 CNS) [µM],TGI (SK-MEL-2 melanoma) [µM],TGI (HOP-62 NSCLC) [µM],TGI (MALME-3M melanoma) [µM],TGI (HOP-18 NSCLC) [µM],TGI (KM20L2 colon) [µM],TGI (UACC-62 melanoma) [µM],TGI (HT29 colon) [µM],TGI (EKVX NSCLC) [µM],TGI (HL-60(TB) leukemia) [µM],TGI (NCI-H522 lung) [µM],GI50 (HOP-62 NSCLC) [µM],GI50 (HT29 colon) [µM],TGI (XF 498 CNS) [µM],GI50 (HL-60(TB) leukemia) [µM]
COc1cc(C2c3cc4c(cc3[C@@H](Oc3ccc(F)cc3)C3COC(=O)[C@H]23)OCO4)cc(OC)c1O (stereo not given in full),> 60,> 100,0.95,31.8,> 100,> 100,> 100,20,> 100,1.06,> 100,,,,
O=S(=O)(/N=C(\NO)Nc1ccc(Cl)cc1)c1ccccc1,> 100,29.6,> 100,22.5,,,36.9,41.3,26.1,> 33.7,5.38,,,,
CC(C)(C)C1=CC(=C2C=Cc3ccccc3O2)C=C(C(C)(C)C)C1=O,18.9,4.71,20.9,14.5,,,8.04,17.3,43.6,5.92,17.8,,,,
CSc1c(CC(=O)Nc2ccc(Cl)cc2)n(Cc2ccccc2)c2ccccc12,> 100,51.3,> 100,> 100,,,> 100,> 100,> 100,> 100,> 100,,,,
Cc1ccc2[nH]c3[nH]c(=S)[nH]c(=O)c3c2c1,> 100,> 100,> 100,> 100,,,> 100,> 100,> 100,> 100,> 100,,,,
CCN(CC)CCCNc1[nH]ncc2c(C)c3nc4ccc(OC)cc4c3cc12,6.48,3.01,4.16,2.36,,,2.74,6.04,10.9,2.9,0.639,,,,
N#C/C(N)=C(\C#N)N=CNc1ccc(N)cc1,> 100,> 100,> 100,> 100,,,> 100,> 100,> 100,> 100,> 100,,,,
CNC(=O)OC(COC)CN1CCN(c2ccccc2C)CC1 (stereo not given),> 10,> 10,> 10,> 10,,,> 10,> 10,> 10,> 10,> 10,,,,
O=C1CCCCC/C1=C\c1ccccc1,> 100,> 100,> 100,> 100,,,> 100,> 100,> 100,> 100,> 100,,,,
COC(=O)/C=C\C(C#N)(C#N)N=Cc1sccc1C,35.1,30.2,27.8,11.3,,,17,3.31,15,4.45,1.67,,,,
COC(=O)[C@@H]1CC(C(CN)c2cn(C(=O)OC(C)(C)C)c3ccccc23)C(=O)N1C(=O)OC(C)(C)C (stereo not given in full),45.2,55.3,> 100,54.1,,,28.8,55.2,53.8,59.2,95.8,,,,
O=C(O)c1ccc(Nc2nc3cc(C(F)(F)F)ccc3n3cccc23)cc1,> 100,> 100,> 100,> 100,,,77.8,30.9,> 100,> 100,53.8,,,,
CN1C(=O)CC2CCC(=O)N2c2cccnc21 (stereo not given),> 100,> 100,> 100,> 100,,,> 100,> 100,> 100,> 100,> 100,,,,
CCOC(=O)c1cc(C2CCN(c3ccccc3)C2=O)c(C(=O)/C=C(/C)N)[nH]1 (stereo not given),46.7,> 100,46,35.6,,,40.1,25.6,> 100,> 100,53.1,,,,
O=C(OC/C=C1C=C(OC(=O)c2ccccc2)/C(=N/N(C(=O)c2ccccc2)c2ccccc2)O\1)c1ccccc1,21.4,27,37,,,,,41.5,,2.29,,18.8,19.8,33.7,< 0.01
CC[P+]1(c2ccccc2)[C@@H](C)CC[C@@H]1C,> 100,> 100,> 100,> 100,,,> 100,> 100,> 100,> 100,> 100,,,,
Cc1ccc(S(=O)(=O)N/N=C2/CC3CCC4CC2CC34)cc1 (stereo not given),> 100,> 100,> 100,> 100,,,> 100,> 100,> 100,> 100,> 100,,,,
COc1ccc(C2C3CCCC(C3=O)C(c3ccc(OC)cc3)N2N=O)cc1 (stereo not given),45.8,45.1,> 86.5,20,31,> 100,97.4,51.2,99.6,> 64,34.6,,,72.4,
COc1ccccc1NCc1cccc2c(=O)c3ccc(Cl)cc3oc12,> 100,> 100,> 100,> 100,,,> 100,> 100,> 100,64,> 100,,,,
C[N+]1(CCC[N+]2(C)CC3C4C=CC(CC4)C3C2)CCOCC1 (stereo not given),> 100,> 100,> 100,> 100,,,> 100,> 100,> 100,> 100,> 100,,,,
COc1cc(NC=C2C(=O)OC(C)(C)OC2=O)c(OC)c(C)c1OC,> 100,> 100,> 100,> 100,,,> 100,> 100,> 100,> 100,> 100,,,,
OC12c3ccccc3C3CCC4(OCCO4)C3C1c1ccccc12 (stereo not given),> 100,> 100,> 100,> 100,> 100,> 100,> 100,> 100,> 100,> 100,> 100,,,,
